This note sets out measurements from ChEMBL document CHEMBL1697681, “Predicting phospholipidosis using machine learning” (Mol Pharm, 2010).

Each structure is given as a SMILES string.

The test system of this data set is Phospholipidosis. Briefly: Literature-mined public compounds from Lowe et al phospholipidosis modelling dataset.
As to `CCCC[C@@H]1CC(=O)[C@]2(O)O[C@@H]3[C@@H](NC)[C@@H](O)[C@@H](NC)[C@H](O)[C@H]3O[C@@H]2O1` [TROSPECTOMYCIN], the Phospholipidosis result is “Positive”. As for `CCCC(CCC)C(=O)O` [VALPROIC ACID], the Phospholipidosis entry is “Negative”. With `CC[C@]1(O)C[C@@H]2CN(CCc3c([nH]c4ccccc34)[C@@](C(=O)OC)(c3cc4c(cc3OC)N(C)[C@H]3[C@@](O)(C(=O)OC)[C@H](OC(C)=O)[C@]5(CC)C=CCN6CC[C@]43[C@@H]65)C2)C1` [VINBLASTINE], the Phospholipidosis result was “Negative”. In the case of `Cc1cn([C@H]2C[C@H](N=[N+]=[N-])[C@@H](CO)O2)c(=O)[nH]c1=O` [ZIDOVUDINE] it was “Negative”; in that of `CC(c1cc2ccccc2s1)N(O)C(N)=O` (stereo unspecified) [ZILEUTON], “Negative”. As to `CN(C)C/C=C(/c1ccc(Br)cc1)c1cccnc1` [ZIMELDINE], the Phospholipidosis result is “Positive”.
